Laboratory results from PubChem BioAssay (NCI).
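Five concentrations, 48 hours, 96-well plates. TGI marks complete inhibition of growth.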

Assays:
Test in all cases: DTP human tumour cell line panel, 48 h
DLD-1 colon = test system: DLD-1 colon
M14 melanoma = test system: M14 melanoma
SK-OV-3 ovarian = test system: SK-OV-3 ovarian
SK-MEL-5 melanoma = test system: SK-MEL-5 melanoma
M19-MEL melanoma = test system: M19-MEL melanoma
HCC-2998 colon = test system: HCC-2998 colon
CAKI-1 renal = test system: CAKI-1 renal
K-562 leukemia = test system: K-562 leukemia
UACC-257 melanoma = test system: UACC-257 melanoma
NCI/ADR-RES ovarian = test system: NCI/ADR-RES ovarian

| Structure (SMILES) | TGI (DLD-1 colon) | TGI (M14 melanoma) | TGI (SK-OV-3 ovarian) | TGI (SK-MEL-5 melanoma) | TGI (M19-MEL melanoma) | TGI (HCC-2998 colon) | TGI (CAKI-1 renal) | TGI (K-562 leukemia) | TGI (UACC-257 melanoma) | TGI (NCI/ADR-RES ovarian) |
| --- | --- | --- | --- | --- | --- | --- | --- | --- | --- | --- |
| CC1NOC(=O)C1N=Nc1ccc(Cl)cc1Cl (stereo not given) | > 100 µM | 47.4 µM | 77.2 µM | 73.2 µM | 64.3 µM | 80.4 µM | 60.9 µM | 82.5 µM | 67.2 µM | – |
| N#CC1CC(c2ccccc2)Nc2cc(Cl)ccc2N1 (stereo not given) | > 100 µM | > 100 µM | > 100 µM | > 100 µM | > 100 µM | > 100 µM | > 100 µM | > 100 µM | > 100 µM | – |
| CCc1cccc(CC)c1NC(=O)/C(Cl)=C(/Cl)C(=O)O | 49.1 µM | 35.9 µM | > 100 µM | > 100 µM | 46.5 µM | > 75.9 µM | 32.6 µM | > 94.9 µM | 48.3 µM | – |
| COc1cc(/C=C2\NC(=O)C(Cc3cc(OC)c(OC)c(C)c3OC)N(C(C)=O)C2=O)c(OC)c(C)c1OC (stereo not given) | > 100 µM | > 100 µM | > 100 µM | > 100 µM | > 100 µM | > 100 µM | > 100 µM | > 100 µM | > 100 µM | – |
| O=NN(CCCl)C(=O)NC1CCC(CC(=O)O)CC1 (stereo not given) | > 100 µM | > 100 µM | > 100 µM | > 100 µM | > 100 µM | > 100 µM | > 100 µM | > 100 µM | > 100 µM | > 100 µM |
| O=C(CCCC(=O)Nc1ccc(Cl)cc1Cl)CC(=O)c1ccc2ccccc2c1 | > 100 µM | > 100 µM | > 100 µM | > 100 µM | > 100 µM | > 100 µM | > 100 µM | > 100 µM | > 100 µM | – |
| Cn1c(=O)c2nc3sc4c(n3c2n(C)c1=O)C(=O)c1ccccc1C4=O | > 100 µM | > 100 µM | > 60.9 µM | > 100 µM | > 100 µM | > 100 µM | > 100 µM | > 100 µM | > 100 µM | 87.3 µM |
| CC(=O)OCC(=O)[C@@]1(O)CC[C@H]2[C@@H]3C[C@H](C)C4=CC(=O)C=C[C@]4(C)[C@@]3(F)[C@@H](O)C[C@@]21C | > 100 µM | > 100 µM | > 100 µM | > 100 µM | > 100 µM | > 100 µM | > 100 µM | > 100 µM | > 100 µM | – |
| C[C@H](C(=O)O)C(=O)NC(=O)N(Cc1ccccc1)N=O | > 100 µM | > 100 µM | > 100 µM | > 100 µM | > 100 µM | > 100 µM | > 100 µM | > 100 µM | > 100 µM | – |
| CC(C)Cc1ccc(C(C)/C=C2\CCC(CN(C)C)C2=O)cc1 (stereo not given) | 40 µM | 28.5 µM | 36.5 µM | 19.4 µM | 37.5 µM | 31.3 µM | 32.7 µM | 8.04 µM | 30 µM | 24.3 µM |
| c1ccc(C(c2ccccc2)c2ccccn2)cc1 | > 100 µM | > 100 µM | > 100 µM | > 100 µM | > 100 µM | > 100 µM | > 100 µM | > 100 µM | > 100 µM | – |
| O=C1C2C3C=CC(C2C(=O)N1CO)C1C2C(=O)N(CO)C(=O)C2C31 (stereo not given) | > 73.7 µM | > 100 µM | > 100 µM | > 100 µM | > 100 µM | > 100 µM | > 100 µM | > 82.5 µM | > 100 µM | – |
| COc1ccc2nc(NC(=O)C(=O)CC(=O)c3ccc([N+](=O)[O-])cc3)sc2c1 | > 100 µM | > 100 µM | > 100 µM | > 100 µM | > 100 µM | > 100 µM | > 100 µM | > 100 µM | > 100 µM | – |
